Assay results reported in PubChem BioAssay (NCI).
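These data come from cells grown in 96-well plates and exposed to compound for 48 hours at five concentrations. Here, GI50 denotes the concentration required for 50% inhibition of growth. TGI is the concentration that stops growth completely.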

How the values were obtained:
Test in all cases: growth of human tumour cells (NCI), 48 h
786-0 renal = test system: 786-0 renal
A498 renal = test system: A498 renal
A549 NSCLC = test system: A549 NSCLC
ACHN renal = test system: ACHN renal
BT-549 breast = test system: BT-549 breast
CAKI-1 renal = test system: CAKI-1 renal
CCRF-CEM leukemia = test system: CCRF-CEM leukemia
COLO 205 colon = test system: COLO 205 colon
DU-145 prostate = test system: DU-145 prostate
EKVX NSCLC = test system: EKVX NSCLC
HCC-2998 colon = test system: HCC-2998 colon
HCT-116 colon = test system: HCT-116 colon
HCT-15 colon = test system: HCT-15 colon
HL-60(TB) leukemia = test system: HL-60(TB) leukemia
HOP-62 NSCLC = test system: HOP-62 NSCLC
HOP-92 NSCLC = test system: HOP-92 NSCLC
HS 578T breast = test system: HS 578T breast
HT29 colon = test system: HT29 colon
IGROV1 ovarian = test system: IGROV1 ovarian
K-562 leukemia = test system: K-562 leukemia
KM12 colon = test system: KM12 colon
LOX IMVI melanoma = test system: LOX IMVI melanoma
M14 melanoma = test system: M14 melanoma
MALME-3M melanoma = test system: MALME-3M melanoma
MCF7 breast = test system: MCF7 breast
MDA-MB-231 breast = test system: MDA-MB-231 breast
MDA-MB-435 = test system: MDA-MB-435
MDA-MB-468 breast = test system: MDA-MB-468 breast
MOLT-4 leukemia = test system: MOLT-4 leukemia
NCI-H226 lung = test system: NCI-H226 lung
NCI-H23 lung = test system: NCI-H23 lung
NCI-H460 lung = test system: NCI-H460 lung
NCI-H522 lung = test system: NCI-H522 lung
NCI/ADR-RES ovarian = test system: NCI/ADR-RES ovarian
OVCAR-3 ovarian = test system: OVCAR-3 ovarian
OVCAR-4 ovarian = test system: OVCAR-4 ovarian
OVCAR-5 ovarian = test system: OVCAR-5 ovarian
OVCAR-8 ovarian = test system: OVCAR-8 ovarian
PC-3 prostate = test system: PC-3 prostate
RPMI-8226 leukemia = test system: RPMI-8226 leukemia
RXF 393 renal = test system: RXF 393 renal
SF-268 CNS = test system: SF-268 CNS
SF-295 CNS = test system: SF-295 CNS
SF-539 CNS = test system: SF-539 CNS
SK-MEL-2 melanoma = test system: SK-MEL-2 melanoma
SK-MEL-28 melanoma = test system: SK-MEL-28 melanoma
SK-MEL-5 melanoma = test system: SK-MEL-5 melanoma
SK-OV-3 ovarian = test system: SK-OV-3 ovarian
SN12C renal = test system: SN12C renal
SNB-19 CNS = test system: SNB-19 CNS
SNB-75 CNS = test system: SNB-75 CNS
SR leukemia = test system: SR leukemia
SW-620 colon = test system: SW-620 colon
T-47D breast = test system: T-47D breast
TK-10 renal = test system: TK-10 renal
U251 CNS = test system: U251 CNS
UACC-257 melanoma = test system: UACC-257 melanoma
UACC-62 melanoma = test system: UACC-62 melanoma
UO-31 renal = test system: UO-31 renal

Work on O=C(Nc1ccc(Cl)c(C(F)(F)F)c1)c1cncc(C#Cc2cnc3ccc(N4CCOCC4)nn23)c1 yielded a GI50 (786-0 renal) of 2.68 µM, a TGI (786-0 renal) of 11.8 µM and a GI50 (A498 renal) of 1.98 µM. For the same compound, the TGI (A498 renal) was 6.82 µM, the GI50 (A549 NSCLC) was 2.15 µM and the TGI (A549 NSCLC) was > 81 µM. The GI50 (ACHN renal) was 1.54 µM, the TGI (ACHN renal) was 10.3 µM and the GI50 (BT-549 breast) was 1.43 µM. For the same compound, the TGI (BT-549 breast) was 6.62 µM, the GI50 (CAKI-1 renal) was 2.07 µM and the TGI (CAKI-1 renal) was 11.1 µM. The GI50 (CCRF-CEM leukemia) was 2.58 µM, the TGI (CCRF-CEM leukemia) was > 81 µM and the GI50 (COLO 205 colon) was 1.17 µM. The TGI (COLO 205 colon) was 9.92 µM, the GI50 (DU-145 prostate) was 2.86 µM and the TGI (DU-145 prostate) was > 81 µM. For the same compound, the GI50 (EKVX NSCLC) was 2.12 µM, the TGI (EKVX NSCLC) was 21.2 µM and the GI50 (HCC-2998 colon) was 2.06 µM. The TGI (HCC-2998 colon) was 15.2 µM, the GI50 (HCT-116 colon) was 0.356 µM and the TGI (HCT-116 colon) was 3.11 µM. For the same compound, the GI50 (HCT-15 colon) was 2.55 µM, the TGI (HCT-15 colon) was > 81 µM and the GI50 (HL-60(TB) leukemia) was 0.256 µM. For the same compound, the TGI (HL-60(TB) leukemia) was 3.87 µM, the GI50 (HOP-62 NSCLC) was 0.912 µM and the TGI (HOP-62 NSCLC) was 9.9 µM. It also gave a GI50 (HOP-92 NSCLC) of 0.255 µM, a TGI (HOP-92 NSCLC) of 1.55 µM and a GI50 (HS 578T breast) of 0.809 µM. For the same compound, the TGI (HS 578T breast) was 4.15 µM, the GI50 (HT29 colon) was 1 µM and the TGI (HT29 colon) was 11.1 µM. For the same compound, the GI50 (IGROV1 ovarian) was 0.579 µM, the TGI (IGROV1 ovarian) was 4.96 µM and the GI50 (K-562 leukemia) was 0.728 µM. For the same compound, the TGI (K-562 leukemia) was > 81 µM, the GI50 (KM12 colon) was 0.0081 µM and the TGI (KM12 colon) was 46.4 µM. It also gave a GI50 (LOX IMVI melanoma) of 0.812 µM, a TGI (LOX IMVI melanoma) of 4.35 µM and a GI50 (M14 melanoma) of 0.717 µM. The TGI (M14 melanoma) was 3.01 µM, the GI50 (MALME-3M melanoma) was 0.854 µM and the TGI (MALME-3M melanoma) was 5.62 µM. It also gave a GI50 (MCF7 breast) of 1.91 µM, a TGI (MCF7 breast) of 15.4 µM and a GI50 (MDA-MB-231 breast) of 0.321 µM. For the same compound, the TGI (MDA-MB-231 breast) was 3.1 µM, the GI50 (MDA-MB-435) was 1.44 µM and the TGI (MDA-MB-435) was > 81 µM. It also gave a GI50 (MDA-MB-468 breast) of 2.54 µM, a TGI (MDA-MB-468 breast) of 14.2 µM and a GI50 (MOLT-4 leukemia) of 1.59 µM. It also gave a TGI (MOLT-4 leukemia) of 4.77 µM, a GI50 (NCI-H226 lung) of 0.361 µM and a TGI (NCI-H226 lung) of 12.5 µM. It also gave a GI50 (NCI-H23 lung) of 0.842 µM, a TGI (NCI-H23 lung) of 5.33 µM and a GI50 (NCI-H460 lung) of 2.67 µM. It also gave a TGI (NCI-H460 lung) of 19.1 µM, a GI50 (NCI-H522 lung) of 1.6 µM and a TGI (NCI-H522 lung) of 7.49 µM. For the same compound, the GI50 (NCI/ADR-RES ovarian) was 2.45 µM, the TGI (NCI/ADR-RES ovarian) was 15 µM and the GI50 (OVCAR-3 ovarian) was 3.93 µM. The TGI (OVCAR-3 ovarian) was > 81 µM, the GI50 (OVCAR-4 ovarian) was 3.8 µM and the TGI (OVCAR-4 ovarian) was > 81 µM. For the same compound, the GI50 (OVCAR-5 ovarian) was 0.883 µM, the TGI (OVCAR-5 ovarian) was 18.7 µM and the GI50 (OVCAR-8 ovarian) was 2.5 µM. The TGI (OVCAR-8 ovarian) was 19.4 µM, the GI50 (PC-3 prostate) was 2.51 µM and the TGI (PC-3 prostate) was 24.4 µM. For the same compound, the GI50 (RPMI-8226 leukemia) was 2.42 µM, the TGI (RPMI-8226 leukemia) was > 81 µM and the GI50 (RXF 393 renal) was 0.818 µM. For the same compound, the TGI (RXF 393 renal) was 2.87 µM, the GI50 (SF-268 CNS) was 2.18 µM and the TGI (SF-268 CNS) was 31.5 µM. The GI50 (SF-295 CNS) was 2.65 µM, the TGI (SF-295 CNS) was 33.9 µM and the GI50 (SF-539 CNS) was 0.16 µM. For the same compound, the TGI (SF-539 CNS) was 1.64 µM, the GI50 (SK-MEL-2 melanoma) was 1.31 µM and the TGI (SK-MEL-2 melanoma) was 3.23 µM. The GI50 (SK-MEL-28 melanoma) was 1.24 µM, the TGI (SK-MEL-28 melanoma) was 7.05 µM and the GI50 (SK-MEL-5 melanoma) was 2.07 µM. The TGI (SK-MEL-5 melanoma) was 7.78 µM, the GI50 (SK-OV-3 ovarian) was 2.59 µM and the TGI (SK-OV-3 ovarian) was 11.5 µM. The GI50 (SN12C renal) was 0.749 µM, the TGI (SN12C renal) was > 81 µM and the GI50 (SNB-19 CNS) was 2.62 µM. It also gave a TGI (SNB-19 CNS) of 7.93 µM, a GI50 (SNB-75 CNS) of 1.15 µM and a TGI (SNB-75 CNS) of 4.59 µM. For the same compound, the GI50 (SR leukemia) was 1.41 µM, the TGI (SR leukemia) was > 81 µM and the GI50 (SW-620 colon) was 1.65 µM. For the same compound, the TGI (SW-620 colon) was > 81 µM, the GI50 (T-47D breast) was 1.89 µM and the TGI (T-47D breast) was 17.4 µM. For the same compound, the GI50 (TK-10 renal) was 2.06 µM, the TGI (TK-10 renal) was 30.9 µM and the GI50 (U251 CNS) was 3.62 µM. For the same compound, the TGI (U251 CNS) was > 81 µM, the GI50 (UACC-257 melanoma) was 2.12 µM and the TGI (UACC-257 melanoma) was 21.4 µM. It also gave a GI50 (UACC-62 melanoma) of 0.785 µM, a TGI (UACC-62 melanoma) of 3.63 µM and a GI50 (UO-31 renal) of 0.562 µM. The TGI (UO-31 renal) was 6.24 µM.
